ChEMBL document CHEMBL3507680, “University of Dundee, Gates Library screen for HepG2 cell viability”

experiment: Human HepG2 cell viability assay in 384 well format; assay type: toxicity, cell-based; parameters: dose 125 nL, time 70.5 hour; cytotoxicity at 70.5 h: concentration not given beside the values; settings: HepG2 cells, read-out: Inhibition

Compound	cytotoxicity at 70.5 h [%]
CN(C)CCN(C)C(=O)NC1CCC(Oc2ccccc2C#N)CC1 (stereo not drawn)	-4.89
Cc1c(C(=O)N(C)CC(F)(F)F)nnn1-c1ccc(F)cc1	0.0353
CNC(=O)c1nc2c(s1)CCN(C(=O)Cc1ccc(OC)cc1)CC2	20.5
Cn1ccnc1SCCNC(=O)c1c[nH]nc1C1CCCCC1	-8.06
CCCC(O)CN1CCC(=O)N(CCOC)Cc2cc3c(cc21)OCO3 (stereo not drawn)	18.9
N#Cc1cn(C2CC2)c(=O)n(Cc2cc(-c3cccs3)on2)c1=O	-6.97
Cc1cs/c(=N\C(=O)c2c3c(nc4onc(C)c24)CCC3)[nH]1	-19.5
CN(Cc1noc(C2CC2)n1)C1CCN(CCn2cccn2)C1 (stereo not drawn)	-5.95
Cc1noc(C)c1-c1cncc(CC2CCN(C(=O)c3cc[nH]n3)C2)n1 (stereo not drawn)	-4.86
COC(=O)c1cccc(C(=O)N(C)Cc2ccsc2)c1	22.5
CN(C(=O)Cc1c[nH]c2ccccc12)C1CCN(c2ccccn2)CC1	9.62
CCc1c(O)nc(SCC(=O)Nc2ccccc2)n(C(C)CC)c1=O (stereo not drawn)	22
COc1ccc(-n2nc(C)c(C(C)=O)c2C)cc1CO	0.889
CCc1ocnc1C(=O)N1CCC2(CC1)OCC(C)O2 (stereo not drawn)	-5.57
O=C1NCC(C(=O)NCc2ccccc2CN2CCOCC2)N1 (stereo not drawn)	-4.6
C1CN(Cc2noc(C3CC3)n2)CCN(Cc2nnc(C3CC3)o2)C1	15.4
O=C1COc2ccc(S(=O)(=O)NCc3ccccc3)c3c2N1CCC3	4.09
Cc1ccc(C(=O)N2C[C@@H]3CN(c4ncccn4)C[C@@H]3C2)cc1	-4.94
CC(=O)N(C)c1nc(CN2CCCC2Cn2cncn2)cs1 (stereo not drawn)	-2.86
Cc1nc(C)n(CC2CN(CCOc3cccc(F)c3)CCO2)n1 (stereo not drawn)	-9.64
CN(C)C(=O)N1CCN(CCCc2ccccc2)[C@H]2CS(=O)(=O)C[C@H]21	-1.41
CCc1cn[nH]c1C1CCN(C(=O)c2cc(C#N)c(=O)[nH]c2C)CC1	-3.13
CN(Cc1ccccc1)C(=O)c1nc(S(C)(=O)=O)n2ccccc12	31.2

Compound	cytotoxicity at 70.5 h [%]
N#Cc1cccc(N2CCCC3(CNCCO3)C2)n1 (stereo not drawn)	-8.33
CC1CCN(C)c2ccccc2N1C(=O)c1ccnc(-n2cncn2)c1 (stereo not drawn)	2.2
CCOc1c(Br)cc(C2C3=C(COC3=O)Nc3[nH]nc(C)c32)cc1OC (stereo not drawn)	29.2
CCc1cnc(N)nc1NCCCN1CCCCC1CO (stereo not drawn)	-8.8
CN1CC(C(=O)NCCc2ccn(-c3ccc(F)cc3)n2)CC1=O (stereo not drawn)	-9.34
CCCn1nnnc1CN(c1ccc(N2CCOCC2)cc1)C(C)C	-8.46
COc1ncccc1CN1CCN(c2noc(C(C)C)n2)CC1	3.17
CC(C)(O)CN1CCN(C(=O)COCC(F)(F)F)CC1	15.1
O=C(c1cnc(C2CC2)nc1)N1CCCC(c2nccs2)C1 (stereo not drawn)	27.6
CCOCC1CN(Cc2ccoc2)Cc2cn(CC3CC3)nc21 (stereo not drawn)	-19.8
NC(=O)CCCNC(=O)CCc1cc(Br)cs1	-5.18
Cc1nnc(N2CC[C@H]3O[C@H](C(=O)NCc4ccccn4)CC[C@H]32)s1	-6.62
O=C(C(CNCc1cccs1)c1ccccc1)N1CCOCC1 (stereo not drawn)	7.5
CC1=CCN(S(=O)(=O)c2cccc(C(=O)N3CCOCC3)c2)CC1	-15.8
Cn1cccc1C(=O)NCc1cn2c(n1)CN(Cc1ccccn1)CC2	-13.2
CS(=O)(=O)NCc1cc2n(n1)CCCN(Cc1cccc(C#N)c1)C2	-9.28
O=C(C1CCSCC1)N1CC[C@H]2OCC[C@@]2(COCC2CC2)C1	-6.06
CCN1CCC(N2CCN(c3cc(-c4nc(C)no4)ccn3)CC2)CC1	11.7
Cc1cncc(C2CCCN(Cc3cccn3C)C2)n1 (stereo not drawn)	0.452
Cn1cc(S(=O)(=O)NCc2ccc(F)cc2)cn1	-2.02
Fc1cccnc1Oc1cc(F)c(CN2CCCC2)c(F)c1	-13.4
CC(C)c1nc2c(n1C)CCN(CC(=O)NCc1ccccn1)C2	-0.491
CCN1C(=O)CC(N(C)Cc2nc3ccccc3c(=O)[nH]2)C1=O (stereo not drawn)	-7.75

Compound	cytotoxicity at 70.5 h [%]
CN1CCN(C(=O)CCCc2ccccn2)c2ccc(F)cc21	14.3
O=C(c1ccco1)N1CCN(Cc2nc(C3CC3)no2)CC1	-5.91
Cc1cc(CS(=O)(=O)CC(=O)N2c3ccccc3CC2C)no1 (stereo not drawn)	-0.335
O=C(c1cccnc1)N1C[C@@H]2CC[C@H](C1)N(Cc1ncc[nH]1)C2	-7.7
Cc1cc(C[C@@H]2CCC[C@H]2NCc2ccc(C(F)(F)F)cc2)on1	-2
COC1CCN(C(=O)c2cc(-c3ccc(Cl)cc3)on2)CC1	-8.24
COc1ccccc1N1CCN(C(=O)Cn2nc(C)c(C)c2C)C(C)C1 (stereo not drawn)	-3.01
Cc1cc(C(=O)NC2CCc3nc(C)cn3C2)[nH]n1 (stereo not drawn)	-5.51
COc1cccc(CCNS(=O)(=O)c2ccc(NC(C)=O)cc2)c1	2.8
O=C(Cc1ccc2c(c1)OCCCO2)Nc1nnn[nH]1	-6.98
CNC(=O)C1Cc2ccccc2CN1CCCc1ccccc1 (stereo not drawn)	-4.46
CN1CCN(Cc2nnc(C3CCN(C(CO)CO)CC3)n2C)CC1	-23.4
CN(CC1=CCCN(CCc2ccccn2)C1)C(=O)c1ccco1	-9.19
Cc1nonc1OCCNC(=O)COc1ccc(F)cc1F	-12.2
CCC(CNC1CCN(C(C)=O)CC1)Oc1ccccc1Cl (stereo not drawn)	5.02
c1cc(CN2CC[C@H]3CO[C@H](CN4CCOCC4)[C@H]3C2)cs1	-11.2
Cc1cnc(N2CCN3C[C@H](OCc4ccccn4)C[C@H]3C2)nc1	-2.63
CCc1nc(C2CCCN2CCCc2nc3ccccc3o2)no1 (stereo not drawn)	-0.084
CCOCC1CN(C(=O)c2cnoc2C)Cc2cn(C)nc21 (stereo not drawn)	-5.33
CCCc1cc(=O)n(CC(N)=O)c(-n2nc(C)cc2C)n1	-4.18
CCc1noc(C)c1C(=O)NCc1c(C)nn(CCOC)c1C	-4.73
CCc1n[nH]c(C2CN(C(=O)Cc3ccc(C)nc3)CCO2)n1 (stereo not drawn)	9.01
Cc1cc(N2CCCC2c2cc(Nc3cnccn3)nc(C)n2)ncn1 (stereo not drawn)	-11.4

Compound	cytotoxicity at 70.5 h [%]
COCC[C@]1(O)CCN(S(=O)(=O)c2ccc(C)cc2OC)C[C@H]1C	-4.64
Cc1oncc1C(=O)N1CC2CC1(C(=O)N(C)C)C2	-6.15
NC(=O)c1ccc(C2CCCN2C(=O)Cn2nc3ccccc3n2)s1 (stereo not drawn)	8.36
Cn1cc(NC(=O)N2CCCC2c2ccccn2)ccc1=O (stereo not drawn)	-5.4
Cc1c(O)cccc1C(=O)N1CCCC2(C1)C(=O)N(C)c1ccccc12 (stereo not drawn)	23
c1cncc(CN2CCn3cc(CN4CCCCC4)nc3C2)c1	-5.48
NC(=O)CN1CCN(CC2CC2)c2ccccc21	13.1
CC1=Nc2c(c(O)nn2C(C)C)C(c2cccnc2)S1 (stereo not drawn)	26.1
O=C(O)c1c[nH]c2cc(NS(=O)(=O)c3ccc(Cl)cc3F)ccc12	-5.42
COC(=O)c1ccc(N2CCN(C(=O)C(C)C)C(C)C2)cc1 (stereo not drawn)	26.6
CCO[C@@H]1C[C@H]2CN(S(=O)(=O)c3cccs3)CCN2C1	-4.39
CCOCC1CN(Cc2ccc(F)cc2)Cc2nn(CC3CC3)cc21 (stereo not drawn)	-17.2
O=C(CN1CCCS1(=O)=O)Nc1ccc(OC(F)F)cc1	-9.68
CN1CCC2(CCCN(c3nccc(C(F)(F)F)n3)C2)CC1	-11.3
NC(=O)NC(CC(=O)NCCc1ccc(F)cc1)c1ccccc1 (stereo not drawn)	1.48
Cc1nnn2c1COC(CNCc1ccccn1)C2 (stereo not drawn)	-3.64
c1nc2n(n1)CC(NCc1nc(-c3ccsc3)no1)CC2 (stereo not drawn)	-8.53
CC(C)(C)c1ccc2c(c1)CCN2C(=O)c1ccc(=O)[nH]n1	-5.53
O=C(CN1C(=O)CCC1=O)N1CCC(CSCc2ccco2)CC1	-4.52
Cc1cc(CNc2ccc(C(F)(F)F)cc2)no1	-7.03
O=C(Cc1csc(-c2ccccn2)n1)NCCCN1CCCCCC1=O	-76.6
CN1CCC(Oc2ccc(NC(=O)c3cccc(Cl)c3)cc2)CC1	-3.56
COc1ccccc1CC(=O)NC1CCCc2cn[nH]c21 (stereo not drawn)	-0.577

Compound	cytotoxicity at 70.5 h [%]
COC(=O)[C@@H]1CN(C(=O)c2cscn2)C[C@H]1c1ccc(OC)cc1	-1.39
CCc1nc(C2CCCN2C(=O)c2csc(NC(C)=O)n2)no1 (stereo not drawn)	-1.48
CC(NC(=O)CN(C)S(C)(=O)=O)c1ccc(F)cc1 (stereo not drawn)	-11.2
O=C(CNC(=O)c1ccoc1)NC(c1ccc(F)cc1)C(F)(F)F (stereo not drawn)	-3.8
c1cnc(N2CCCC(c3csc(Nc4cnccn4)n3)C2)nc1 (stereo not drawn)	19.8
CCC/C=C/c1ccc(CN2CCCC2)cn1	48.4
O=C(NCc1cc2n(n1)CCCN(Cc1ccc(CO)o1)C2)C1CCC1	18.2
O=C(c1cccc2c1OCO2)N1CCCCC1Cn1cccn1 (stereo not drawn)	-10.8
Cc1cccc(CN2CCC(c3nnsc3S(C)(=O)=O)CC2)c1	-5.38
CC(C)n1cc(C(=O)NCC(CO)Cc2cccs2)cn1 (stereo not drawn)	-8.73
CCc1nc(Cn2ccnc2-c2nccn2C)no1	-7.78
CCN1CC[C@@]2(C(=O)N(C)C)CCN(S(=O)(=O)c3ccccc3)CC[C@@H]12	-9.93
Cc1ccc(N2CCC3(CCN(C(=O)c4ccccn4)CC3)CC2)nn1	-5.97
CC(=O)c1c(N(C)C)ccnc1C(F)(F)F	-6.51
COc1ncccc1C(=O)N1CC[C@H]2C[C@@H](c3noc(C)n3)O[C@@H]2C1	-8.55
CCOc1ccc(N(C)Cc2nnc(C3CC3)o2)cc1	-2.24
CNC(=O)c1ccc(N(C)C2CCC2)nn1	9.71
O=C(CC1CC1)NCc1cn2c(n1)CN(Cc1cccnc1)CC2	-8.95
Cc1csc(C(Cc2cccs2)NCc2cc3c(cc2C)OCO3)n1 (stereo not drawn)	17.6
Cc1ccc(CN2CCC3(CCC3NC(=O)c3ccn(C)c3)CC2)s1 (stereo not drawn)	0.0423
CCC(C)NC(=O)Cc1c(C)nc2c(c1C)c(=O)[nH]n2C (stereo not drawn)	-8.46
